# Reference: patent US9216954B2, “Serine racemase inhibitor” (National University Corporation University of Toyama, priority 2012, dated 2015)
row,Structure (SMILES),melting point
1,"O=C(CNC(=O)COc1ccc(F)cc1)NCc1ccccc1 [MM-17, N-(Benzylcarbamoyl-methyl)-2-(4-fluoro-phenoxy)-acetamide]",165 to 166 °C
2,"Cc1cccc(OCC(=O)NCC(=O)Nc2ccc(I)cc2)c1 [MM-36, N-[(4-Iodo-phenylcarbamoyl)-methyl]-2-m-tolyloxy-acetamide]",192 to 193 °C
3,"COc1ccc(NC(=O)CNC(=O)COc2ccc(F)cc2)c(C)c1 [MM-6, 2-(4-Fluoro-phenoxy)-N-[(4-methoxy-2-methyl-phenylcarbamoyl)-methyl]-acetamide]",169 to 170 °C
4,"O=C(COc1ccc(Cl)cc1)NCC(=O)Nc1ccc(I)cc1 [MM-4, 2-(4-Chloro-phenoxy)-N-[(4-iodo-phenylcarbamoyl)-methyl]-acetamide]",205 to 206 °C
5,"O=C(COc1ccc(F)cc1)NCC(=O)Nc1ccc(Br)cc1 [MM-10, N-[(4-Bromo-phenylcarbamoyl)-methyl]-2-(4-fluoro-phenoxy)-acetamide]",192 to 193 °C
6,"Cc1ccc(S(=O)(=O)NCC(=O)NCc2ccc(Br)cc2F)cc1 [DR-11, N-(4-Bromo-2-fluoro-benzyl)-2-(toluene-4-sulfonylamino)-acetamide]",123 to 124 °C
7,"O=C(/C=C/c1ccc(F)cc1)NC(=S)NNC(=O)Cc1ccccc1 [LW-12, 3-(4-Fluoro-phenyl)-N—(N′-phenylacetyl-hydrazinocarbothioyl)-acrylamide]",212 to 213 °C
8,"O=C(COc1ccc(Br)cc1)NCC(=O)Nc1ccc(I)cc1 [MM-5, 2-(4-Bromo-phenoxy)-N-[(4-iodo-phenylcarbamoyl)-methyl]acetamide]",211 to 212 °C
9,"O=C(CNC(=O)COc1ccc(Br)cc1)NCc1ccc(Br)cc1 [MM-28, N-[(4-Bromo-benzylcarbamoyl)-methyl]-2-(4-bromo-phenoxy)-acetamide]",208 to 209 °C
10,"O=C(CNC(=O)COc1ccc(Br)cc1)NCc1ccccc1 [MM-16, N-(Benzylcarbamoyl-methyl)-2-(4-bromo-phenoxy)-acetamide]",195 to 196 °C
11,"O=C(COc1ccc(F)cc1)NCC(=O)Nc1ccc(F)cc1 [MM-9, 2-(4-Fluoro-phenoxy)-N-[(4-fluoro-phenylcarbamoyl)-methyl]-acetamide]",202 to 203 °C
12,"O=C(CNS(=O)(=O)Cc1ccccc1)Nc1ccc(Cl)cc1 [DR-14, N-(4-Chloro-phenyl)-2-phenylmethanesulfonylamino-acetamide]",200 to 201 °C
13,"O=C(COc1ccc(Br)cc1)NCC(=S)Nc1c(F)cccc1F [MM-25, 2-(4-Bromo-phenoxy)-N-[(2,6-difluoro-phenylthiocarbamoyl)-methyl]-acetamide]",174 to 175 °C
14,"O=C(COc1ccc(Br)cc1)NCC(=O)Nc1cccc([N+](=O)[O-])c1 [MM-33, 2-(4-Bromo-phenoxy)-N-[(3-nitro-phenylcarbamoyl)-methyl]-acetamide]",197 to 198 °C
15,"COc1cccc(OC)c1/C=C/C(=O)NC(=S)NNC(=O)c1cccs1 [LW-19, 3-(2,6-Dimethoxy-phenyl)-N—[N′-(thiophene-2-carbonyl)-hydrazinocarbothioyl]-acrylamide]",209 to 210 °C
16,"O=C(/C=C/c1cc(Br)cc(Br)c1)NC(=S)NNC(=O)Cc1ccc(F)cc1 [LW-21, 3-(3,5-Dibromo-phenyl)-N-{N′-[2-(4-fluoro-phenyl)-acetyl]hydrazinocarbothioyl}-acrylamide]",195 to 196 °C
17,"COc1cccc(OC)c1/C=C/C(=O)NC(=S)NNC(=O)Cc1cccs1 [LW-10, 3-(2,6-Dimethoxy-phenyl)-N—[N′-(2-thiophen-2-yl-acetyl)-hydrazinocarbothioyl]-acrylamide]",220 to 221 °C
18,"O=C(/C=C/c1cc(Br)cc(Br)c1)NC(=S)NNC(=O)Cc1cccs1 [LW-7, 3-(3,5-Dibromo-phenyl)-N—[N′-(2-thiophen-2-yl-acetyl)-hydrazinocarbothioyl]-acrylamide]",212 to 213 °C
19,"O=C(/C=C/c1cc(Br)cc(Br)c1)NC(=S)NNC(=O)c1cccs1 [LW-20, 3-(3,5-Dibromo-phenyl)-N—[N′-(thiophene-2-carbonyl)-hydrazinocarbothioyl]-acrylamide]",217 to 218 °C
20,"COc1ccc(NC(=O)CNC(=O)COc2ccc(Cl)cc2)c(C)c1 [MM-2, 2-(4-Chloro-phenoxy)-N-[(4-methoxy-2-methyl-phenylcarbamoyl)-methyl]-acetamide]",170 to 171 °C
21,"O=C(/C=C/c1ccc(-c2ccccc2)cc1)NC(=S)NNC(=O)Cc1cccs1 [LW-9, 3-Biphenyl-4-yl-N—[N′-(2-thiophen-2-yl-acetyl)-hydrazinocarbothioyl]-acrylamide]",231 to 232 °C
22,"COc1ccc(OCC(=O)NCC(=O)Nc2c(F)cccc2F)cc1 [MM-23, N-[(2,6-Difluoro-phenylcarbamoyl)-methyl]-2-(4-methoxy-phenoxy)-acetamide]",164 to 165 °C
23,"O=C(COc1ccc(Br)cc1)NCC(=O)Nc1c(F)cccc1F [MM-15, 2-(4-Bromo-phenoxy)-N-[(2,6-difluoro-phenylcarbamoyl)-methyl]-acetamide]",173 to 174 °C

row,Structure (SMILES),melting point
1,"COc1ccc(NC(=O)CNC(=O)COc2ccc(Br)cc2)c(C)c1 [MM-3, 2-(4-Bromo-phenoxy)-N-[(4-methoxy-2-methyl-phenylcarbamoyl)-methyl]-acetamide]",159 to 160 °C
2,"O=C(CNS(=O)(=O)Cc1ccccc1)Nc1c(F)cccc1F [DR-1, N-(2,6-difluorophenyl)-2-phenylmethanesulfonylaminoacetamide]",141 to 142 °C
3,"COc1ccc(/C=C/C(=O)NC(=S)NNC(=O)Cc2cccs2)c(OC)c1 [LW-6, 3-(2,4-Dimethoxy-phenyl)-N—[N′-(2-thiophen-2-yl-acetyl)-hydrazinocarbothioyl]-acrylamide]",207 to 208 °C
4,"O=C(COc1ccc(Cl)cc1)NCC(=O)Nc1c(F)cccc1F [MM-20, 2-(4-Chloro-phenoxy)-N-[(2,6-difluoro-phenylcarbamoyl)-methyl]acetamide]",184 to 185 °C
5,"O=C(COc1ccc(Br)cc1)NCC(=O)Nc1ccc(F)cc1 [MM-8, 2-(4-Bromo-phenoxy)-N-[(4-fluoro-phenylcarbamoyl)-methyl]-acetamide]",213 to 214 °C
6,"Cc1cccc(OCC(=O)NCC(=O)Nc2c(F)cccc2F)c1 [MM-22, N-[(2,6-Difluoro-phenylcarbamoyl)-methyl]-2-m-tolyloxy-acetamide]",161 to 162 °C
7,"O=C(Cc1ccc(F)cc1)NNC(=S)NC(=O)CC1CCCCC1 [LW-34, 2-Cyclohexyl-N-{N′-[2-(4-fluoro-phenyl)-acetyl]-hydrazinocarbothioyl}-acetamide]",132 to 133 °C
8,"Cc1ccc(/C=C/S(=O)(=O)NCC(=O)NCc2ccc(Br)cc2)cc1 [DR-31, N-(4-Bromo-benzyl)-2-(2-p-tolyl-ethenesulfonylamino)-acetamide]",200 to 201 °C
9,"Cc1ccc(/C=C/S(=O)(=O)NCC(=O)Nc2ccc(Br)cc2)cc1 [DR-33, N-(4-Bromo-phenyl)-2-(2-p-tolyl-ethenesulfonylamino)-acetamide]",216 to 219 °C
10,"O=C(/C=C/c1cc(Br)cc(Br)c1)NC(=S)NNC(=O)c1ccccc1 [LW-23, N—(N′-Benzoyl-hydrazinocarbothioyl)-3-(3,5-dibromo-phenyl)-acrylamide]",224 to 225 °C
11,"O=C(/C=C/c1c(F)cc(F)cc1F)NC(=S)NNC(=O)Cc1ccccc1 [LW-14, N—(N′-Phenylacetyl-hydrazinocarbothioyl)-3-(2,4,6-trifluoro-phenyl)-acrylamide]",210 to 211 °C
12,"COc1ccc(OCC(=O)NCC(=S)Nc2c(F)cccc2F)cc1 [MM-26, N-[(2,6-Difluoro-phenylthiocarbamoyl)-methyl]-2-(4-methoxy-phenoxy)-acetamide]",160 to 161 °C
13,"O=C(COc1ccc(F)cc1)NCC(=O)Nc1ccc(I)cc1 [MM-7, 2-(4-Fluoro-phenoxy)-N-[(4-iodo-phenylcarbamoyl)-methyl]-acetamide]",190 to 191 °C
14,"O=C(COc1ccc(F)cc1)NCC(=O)NC1CCCCC1 [MM-14, N-Cyclohexylcarbamoylmethyl-2-(4-fluoro-phenoxy)-acetamide]",184 to 185 °C
15,"O=C(Cc1c(F)cccc1F)NNC(=S)NC(=O)Cc1ccccc1 [LW-28, N-{N′-[2-(2,6-Difluoro-phenyl)-acetyl]-hydrazinocarbothioyl}-2-phenyl-acetamide]",174 to 175 °C
16,"O=C(COc1ccc(F)cc1)NCC(=O)Nc1c(F)cccc1F [MM-24, N-[(2,6-Difluoro-phenylcarbamoyl)-methyl]-2-(4-fluoro-phenoxy)-acetamide]",194 to 195 °C
17,"O=C(Cc1ccc(F)cc1)NNC(=S)NC(=O)Cc1c(F)cccc1F [LW-33, 2-(2,6-Difluoro-phenyl)-N-{N′-[2-(4-fluoro-phenyl)-acetyl]-hydrazinocarbothioyl}-acetamide]",186 to 187 °C
18,"COc1ccc(OCC(=O)NCC(=O)Nc2cccc(Br)c2)cc1 [MM-31, N-[(3-Bromo-phenylcarbamoyl)-methyl]-2-(4-methoxy-phenoxy)-acetamide]",174 to 175 °C
19,"Cc1ccc(S(=O)(=O)NCC(=O)NCc2ccc(Br)cc2)cc1 [DR-10, N-(4-Bromo-benzyl)-2-(toluene-4-sulfonylamino)-acetamide]",207 to 208 °C
20,"O=C(/C=C/c1cc(Br)cc(Br)c1)NC(=S)NNC(=O)CCc1ccccc1 [LW-31, 3-(3,5-Dibromo-phenyl)-N—[N′-(3-phenyl-propionyl)-hydrazinocarbothioyl]acrylamide]",213 to 214 °C
21,"COc1cccc(OCC(=O)NCC(=O)Nc2ccc(OC)cc2C)c1 [MM-19, N-[(4-Methoxy-2-methyl-phenylcarbamoyl)-methyl]-2-(3-methoxy-phenoxy)-acetamide]",115 to 116 °C
22,"O=C(Cc1cccs1)NNC(=S)NC(=O)Cc1ccccc1 [LW-18, 2-Phenyl-N—[N′-(2-thiophen-2-yl-acetyl)-hydrazinocarbothioyl]-acetamide]",161 to 162 °C
23,"Cc1ccc(/C=C/C(=O)NC(=S)NNC(=O)Cc2cccs2)cc1 [LW-4, N—[N′-(2-Thiophen-2-yl-acetyl)-hydrazinocarbothioyl]-3-p-tolyl-acrylamide]",212 to 213 °C
